The values below come from patent US20260374773A1, “MULTI-CYCLIC IRAK AND FLT3 INHIBITING COMPOUNDS AND USES THEREOF” (CHILDREN'S HOSPITAL MEDICAL CENTER, priority 2022, published 2026).

Where only a bound is given, the exact number is not on record here.

Common to all, as to format: biochemical
Conditions in all cases: isolated kinase, 33P-ATP, 2 h

The target in one assay is T1, FLT3 (Homo sapiens, UniProt P36888).
T1 sequence (P36888 27-993): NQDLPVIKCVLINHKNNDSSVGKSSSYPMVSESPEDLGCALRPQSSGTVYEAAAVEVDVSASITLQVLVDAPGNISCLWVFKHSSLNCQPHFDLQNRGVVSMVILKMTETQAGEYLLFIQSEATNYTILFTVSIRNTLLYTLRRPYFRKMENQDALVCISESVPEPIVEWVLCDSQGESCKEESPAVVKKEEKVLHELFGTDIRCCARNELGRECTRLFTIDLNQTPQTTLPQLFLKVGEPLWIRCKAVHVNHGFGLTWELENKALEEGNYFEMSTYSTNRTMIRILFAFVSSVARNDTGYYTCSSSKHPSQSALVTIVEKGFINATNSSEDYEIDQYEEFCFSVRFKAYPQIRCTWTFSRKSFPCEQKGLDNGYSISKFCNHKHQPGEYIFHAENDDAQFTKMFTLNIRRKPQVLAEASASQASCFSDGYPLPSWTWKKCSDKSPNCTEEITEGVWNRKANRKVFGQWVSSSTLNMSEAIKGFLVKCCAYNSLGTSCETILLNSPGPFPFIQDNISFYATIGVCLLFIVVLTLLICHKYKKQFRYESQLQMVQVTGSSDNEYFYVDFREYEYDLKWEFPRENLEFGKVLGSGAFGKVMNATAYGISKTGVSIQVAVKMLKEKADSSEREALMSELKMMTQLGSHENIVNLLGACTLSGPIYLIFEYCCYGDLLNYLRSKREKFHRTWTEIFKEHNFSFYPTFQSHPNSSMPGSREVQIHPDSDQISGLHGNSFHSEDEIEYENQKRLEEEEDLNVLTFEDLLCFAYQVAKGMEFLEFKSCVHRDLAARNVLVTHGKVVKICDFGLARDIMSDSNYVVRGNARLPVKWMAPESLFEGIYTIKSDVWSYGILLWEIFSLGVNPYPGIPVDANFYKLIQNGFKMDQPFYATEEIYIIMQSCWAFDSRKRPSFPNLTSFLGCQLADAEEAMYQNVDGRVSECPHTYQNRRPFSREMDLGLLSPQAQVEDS
Nature of the assay: RBC HotSpot kinase inhibition assay, FLT3. In short, it runs like this:
(§1)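 Isolated kinases, possibly truncated or lacking regulatory receptor domains, in 20 mM Hepes pH 7.5, 10 mM MgCl2, 1 mM EGTA, 0.01% Brij35, 2 mM DTT, 1% DMSO with substrate and cofactors. Compound preincubated 20 min, then ^33P-ATP added; 2 h at room temperature, read by P81 filter binding.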

For another assay, the target named is T2, IRAK4 (Homo sapiens, UniProt Q9NWZ3).
T2 sequence (Q9NWZ3 1-460): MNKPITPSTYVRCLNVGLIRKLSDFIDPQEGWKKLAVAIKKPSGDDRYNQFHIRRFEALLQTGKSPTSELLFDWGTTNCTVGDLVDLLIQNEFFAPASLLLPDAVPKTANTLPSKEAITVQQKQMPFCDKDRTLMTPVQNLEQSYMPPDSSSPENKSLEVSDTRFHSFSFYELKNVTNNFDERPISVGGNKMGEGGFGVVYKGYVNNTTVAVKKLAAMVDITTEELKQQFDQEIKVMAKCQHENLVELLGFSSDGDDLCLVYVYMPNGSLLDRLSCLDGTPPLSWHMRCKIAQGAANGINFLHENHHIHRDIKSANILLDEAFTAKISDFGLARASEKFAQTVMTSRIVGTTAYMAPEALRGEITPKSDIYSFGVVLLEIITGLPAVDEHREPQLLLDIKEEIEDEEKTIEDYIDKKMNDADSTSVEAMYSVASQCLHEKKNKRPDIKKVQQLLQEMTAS
The assay is described as follows: RBC HotSpot kinase inhibition assay, IRAK4. In short, it runs like this: as §1

The target of the next assay is IRAK1 (Homo sapiens, UniProt P51617). Nature of the assay: RBC HotSpot kinase inhibition assay, IRAK1. Summed up:
as §1

Sequence of IRAK1 (P51617 whole entry): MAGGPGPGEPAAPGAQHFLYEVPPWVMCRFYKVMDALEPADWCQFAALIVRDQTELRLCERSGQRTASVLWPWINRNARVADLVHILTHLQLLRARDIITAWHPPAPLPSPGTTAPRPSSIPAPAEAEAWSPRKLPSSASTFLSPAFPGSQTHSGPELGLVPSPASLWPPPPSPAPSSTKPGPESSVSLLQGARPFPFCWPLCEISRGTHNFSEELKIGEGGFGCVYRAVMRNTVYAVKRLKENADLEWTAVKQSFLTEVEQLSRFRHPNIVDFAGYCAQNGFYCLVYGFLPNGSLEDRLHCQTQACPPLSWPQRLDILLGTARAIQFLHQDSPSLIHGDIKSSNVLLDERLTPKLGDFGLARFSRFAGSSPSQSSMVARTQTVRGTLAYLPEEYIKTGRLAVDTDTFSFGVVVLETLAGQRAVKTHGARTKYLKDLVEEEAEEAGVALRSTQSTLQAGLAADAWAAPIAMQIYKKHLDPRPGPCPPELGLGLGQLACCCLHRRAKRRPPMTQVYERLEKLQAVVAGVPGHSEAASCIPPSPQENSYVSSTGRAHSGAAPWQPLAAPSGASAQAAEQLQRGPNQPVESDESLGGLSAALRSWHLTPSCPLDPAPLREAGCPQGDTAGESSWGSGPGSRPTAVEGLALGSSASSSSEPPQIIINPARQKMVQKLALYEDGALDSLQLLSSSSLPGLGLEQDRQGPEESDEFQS

The IC50 is the concentration needed to halve the response being measured. Lower therefore signals higher potency. For `COc1cn2ncc(-c3nc(N[C@@H]4CCCNC4)c(F)cc3F)c2nc1C(C)(C)O` [Compound 11, (R)-2-(3-(3,5-difluoro-6-(piperidin-3-ylamino)pyridin-2-yl)-6-methoxypyrazolo[1,5-a]pyrimidin-5-yl)propan-2-ol], the IC50 was < 0.5 nM against FLT3 (Table 11), 1 nM on IRAK4 (Table 11) and 3 nM against IRAK1 (Table 11).
With `COc1cn2ncc(-c3cncc(N[C@@H]4CCCNC4)n3)c2nc1C1CC1` [Compound 11a, (R)-6-(5-cyclopropyl-6-methoxypyrazolo[1,5-a]pyrimidin-3-yl)-N-(piperidin-3-yl)pyrazin-2-amine], the IC50 on FLT3 (Table 17) was < 0.5 nM; on IRAK4 (Table 17), 1 nM; against IRAK1 (Table 17), 15 nM.
Turning to `COc1cn2ncc(-c3nc(N[C@@H]4CCCNC4)ncc3F)c2nc1C1CC1` [Compound 14a, (R)-4-(5-cyclopropyl-6-methoxypyrazolo[1,5-a]pyrimidin-3-yl)-5-fluoro-N-(piperidin-3-yl)pyrimidin-2-amine], the IC50 on FLT3 (Table 17) is < 0.5 nM; against IRAK4 (Table 17), 0.6 nM; against IRAK1 (Table 17), 0.9 nM.
Regarding `COc1cn2ncc(-c3nc(N[C@H]4CNCC[C@@H]4F)ccc3F)c2nc1C1CC1` [Compound 3, 6-(5-cyclopropyl-6-methoxypyrazolo[1,5-a]pyrimidin-3-yl)-5-fluoro-N-((3S,4S)-4-fluoropiperidin-3-yl)pyridin-2-amine], the figures for the IC50 on FLT3 (Table 11), against IRAK4 (Table 11) and against IRAK1 (Table 11) were < 0.5 nM, < 0.5 nM and 0.8 nM, respectively.
Consider `COc1cn2ncc(-c3nc(N[C@H]4CNCC[C@@H]4F)ncc3F)c2nc1C1CC1` [Compound 15a, 4-(5-cyclopropyl-6-methoxypyrazolo[1,5-a]pyrimidin-3-yl)-5-fluoro-N-((3S,4S)-4-fluoropiperidin-3-yl)pyrimidin-2-amine], for which the IC50 was 0.7 nM on FLT3 (Table 17), 0.7 nM at IRAK4 (Table 17) and < 0.5 nM against IRAK1 (Table 17).
In the case of `COc1cn2ncc(-c3nc(N[C@@H]4CCCNC4)ncc3F)c2nc1C(C)(C)O` [Compound 4a, (R)-2-(3-(5-fluoro-2-(piperidin-3-ylamino)pyrimidin-4-yl)-6-methoxypyrazolo[1,5-a]pyrimidin-5-yl)propan-2-ol], the IC50 against FLT3 (Table 17) was < 0.5 nM; against IRAK4 (Table 17), 2 nM; against IRAK1 (Table 17), 4 nM.
In the case of `COc1cn2ncc(-c3nc(N[C@@H]4CCCNC4)ccc3F)c2nc1C1CC1` [Compound 2, (R)-6-(5-cyclopropyl-6-methoxypyrazolo[1,5-a]pyrimidin-3-yl)-5-fluoro-N-(piperidin-3-yl)pyridin-2-amine], the IC50 is < 0.5 nM at FLT3 (Table 11), < 0.5 nM against IRAK4 (Table 11) and 4 nM against IRAK1 (Table 11).
On to `COc1cn2ncc(-c3ccnc(N[C@H]4CNC[C@@H]4F)n3)c2nc1C1CC1` [Compound 8a, 4-(5-cyclopropyl-6-methoxypyrazolo[1,5-a]pyrimidin-3-yl)-N-((3S,4S)-4-fluoropyrrolidin-3-yl)pyrimidin-2-amine], for which the IC50 against FLT3 (Table 17) was < 0.5 nM; against IRAK4 (Table 17), 1 nM; against IRAK1 (Table 17), 9 nM.
As for `COc1cn2ncc(-c3nc(N[C@H]4CNC[C@@H]4F)c(F)cc3F)c2nc1C(C)(C)O` [Compound 12, 2-(3-(3,5-difluoro-6-(((3S,4S)-4-fluoropyrrolidin-3-yl)amino)pyridin-2-yl)-6-methoxypyrazolo[1,5-a]pyrimidin-5-yl)propan-2-ol], the IC50 is < 0.5 nM against FLT3 (Table 11), < 0.5 nM on IRAK4 (Table 11) and 9 nM at IRAK1 (Table 11).
Turning to `COc1cn2ncc(-c3nc(N[C@H]4CNC[C@@H]4F)ncc3F)c2nc1C1CC1` [Compound 13a, 4-(5-cyclopropyl-6-methoxypyrazolo[1,5-a]pyrimidin-3-yl)-5-fluoro-N-((3S,4S)-4-fluoropyrrolidin-3-yl)pyrimidin-2-amine], the IC50 at FLT3 (Table 17), against IRAK4 (Table 17) and against IRAK1 (Table 17) was < 0.5 nM throughout.
In the case of `COc1cn2ncc(-c3ccnc(N[C@H]4CNCC[C@@H]4F)n3)c2nc1C1CC1` [Compound 7a, 4-(5-cyclopropyl-6-methoxypyrazolo[1,5-a]pyrimidin-3-yl)-N-((3S,4S)-4-fluoropiperidin-3-yl)pyrimidin-2-amine], the figures for the IC50 against FLT3 (Table 17), against IRAK4 (Table 17) and against IRAK1 (Table 17) were < 0.5 nM, 1 nM and 8 nM, respectively.
As to `COc1cn2ncc(-c3ccc(F)c(N[C@@H]4CCCNC4)n3)c2nc1C1CC1` [Compound 5, (R)-6-(5-cyclopropyl-6-methoxypyrazolo[1,5-a]pyrimidin-3-yl)-3-fluoro-N-(piperidin-3-yl)pyridin-2-amine], the IC50 against FLT3 (Table 11) was < 0.5 nM; on IRAK4 (Table 11) it was 3 nM; against IRAK1 (Table 11), 29 nM.
`COc1cn2ncc(-c3nc(N[C@H]4CNCC[C@@H]4F)c(F)cc3F)c2nc1C1CC1` [Compound 22, 6-(5-cyclopropyl-6-methoxypyrazolo[1,5-a]pyrimidin-3-yl)-3,5-difluoro-N-((3S,4S)-4-fluoropiperidin-3-yl)pyridin-2-amine]: the IC50 against FLT3 (Table 11), against IRAK4 (Table 11) and against IRAK1 (Table 11) was < 0.5 nM in each case.
On to `COc1cn2ncc(-c3nc(N[C@H]4CNC[C@@H]4F)ncc3F)c2nc1C(C)(C)O` [Compound 5a, 2-(3-(5-fluoro-2-(((3S,4S)-4-fluoropyrrolidin-3-yl)amino)pyrimidin-4-yl)-6-methoxypyrazolo[1,5-a]pyrimidin-5-yl)propan-2-ol], for which the values for the IC50 against FLT3 (Table 17), on IRAK4 (Table 17) and on IRAK1 (Table 17) were < 0.5 nM, 0.7 nM and 6 nM, respectively.
For `COc1cn2ncc(-c3nc(N[C@H]4CNCC[C@@H]4F)c(F)cc3F)c2nc1C(C)(C)O` [Compound 13, 2-(3-(3,5-difluoro-6-(((3S,4S)-4-fluoropiperidin-3-yl)amino)pyridin-2-yl)-6-methoxypyrazolo[1,5-a]pyrimidin-5-yl)propan-2-ol], the IC50 was < 0.5 nM against FLT3 (Table 11), 2 nM against IRAK4 (Table 11) and 7 nM against IRAK1 (Table 11).
On to `COc1cn2ncc(-c3ccnc(N[C@H]4CNCC[C@@H]4F)n3)c2nc1C(C)(C)O` [Compound 3a, 2-(3-(2-(((3S,4S)-4-fluoropiperidin-3-yl)amino)pyrimidin-4-yl)-6-methoxypyrazolo[1,5-a]pyrimidin-5-yl)propan-2-ol], for which the 50% inhibitory concentration (IC50) was found to be 0.7 nM against FLT3 (Table 17), 15 nM at IRAK4 (Table 17) and 207 nM against IRAK1 (Table 17).
